Laboratory results as given in ChEMBL document CHEMBL3526058, “Investigating the enteroenteric recirculation of apixaban, a factor Xa inhibitor: administration of activated charcoal to bile duct-cannulated rats and dogs receiving an intravenous dose and use of drug transporter knockout rats” (Drug Metab Dispos, 2013).

What was measured:
Rattus norvegicus [1] = assay: Metabolism and biliary clearance in P-gp-knockout Sprague-Dawley rat at 2 mg/kg, iv relative to total clearance; format: ADME, organism-based, Bile; design: dose 2 mg/kg, route intravenous; settings: in vivo
[2] = Renal clearance in bile duct-cannulated beagle dog at 1 mg/kg, iv administered as 5 mins infusion; format: ADME, organism-based, Canis lupus familiaris, Kidney; design: dose 1 mg/kg, route intravenous; settings: in vivo
[3] = Renal clearance in wild-type bile duct-cannulated Sprague-Dawley rat at 2 mg/kg, iv; format: ADME, organism-based, Kidney; design: dose 2 mg/kg, route intravenous; settings: in vivo
Rattus norvegicus [4] = assay: Intestinal clearance in wild-type bile duct-cannulated Sprague-Dawley rat at 2 mg/kg, iv administered 0.125 hr post GF-120918 treatment relative to total clearance; format: ADME, organism-based; design: dose 2 mg/kg, route intravenous; settings: in vivo
Rattus norvegicus [5] = assay: Metabolism and biliary clearance in wild-type bile duct-cannulated Sprague-Dawley rat at 2 mg/kg, iv; format: ADME, organism-based; design: dose 2 mg/kg, route intravenous; settings: in vivo
Canis familiaris [6] = assay: Intestinal clearance in bile duct-cannulated beagle dog at 1 mg/kg, iv administered as 5 mins infusion followed by activated charcoal administration 10 to 420 mins post compound dosing relative to total clearance; format: ADME, organism-based, Canis lupus familiaris; design: dose 1 mg/kg, route intravenous; settings: in vivo
[7] = Cmax in P-gp-knockout Sprague-Dawley rat at 2 mg/kg, iv; format: ADME, organism-based; design: dose 2 mg/kg, route intravenous; settings: in vivo
Canis familiaris [8] = assay: Intestinal clearance in bile duct-cannulated beagle dog at 1 mg/kg, iv administered as 5 mins infusion relative to total clearance; format: ADME, organism-based, Canis lupus familiaris; design: dose 1 mg/kg, route intravenous; settings: in vivo
Canis familiaris [9] = assay: Clearance in bile duct-cannulated beagle dog at 1 mg/kg, iv administered as 5 mins infusion followed by activated charcoal administration 10 to 420 mins post compound dosing; format: ADME, organism-based, Canis lupus familiaris; design: dose 1 mg/kg, route intravenous; settings: in vivo
[10] = Mean residence time in wild-type 30 mins activated charcoal pre-treated bile duct-cannulated Sprague-Dawley rat at 2 mg/kg, iv followed by activated charcoal administration 5 to 180 mins post compound dosing; format: ADME, organism-based; design: dose 2 mg/kg, route intravenous; settings: in vivo
[11] = Mean residence time in bile duct-cannulated beagle dog at 1 mg/kg, iv administered as 5 mins infusion followed by activated charcoal administration 10 to 420 mins post compound dosing; format: ADME, organism-based, Canis lupus familiaris; design: dose 1 mg/kg, route intravenous; settings: in vivo
[12] = Renal clearance in wild-type 30 mins activated charcoal pre-treated bile duct-cannulated Sprague-Dawley rat at 2 mg/kg, iv followed by activated charcoal administration 5 to 180 mins post compound dosing; format: ADME, organism-based, Kidney; design: dose 2 mg/kg, route intravenous; settings: in vivo
[13] = AUC (0 to infinity) in wild-type 30 mins activated charcoal pre-treated bile duct-cannulated Sprague-Dawley rat at 2 mg/kg, iv followed by activated charcoal administration 5 to 180 mins post compound dosing; format: ADME, organism-based; design: time infinity, dose 2 mg/kg, route intravenous; settings: in vivo
Rattus norvegicus [14] = assay: Metabolism and biliary clearance at 8 hrs in wild-type bile duct-cannulated Sprague-Dawley rat at 2 mg/kg, iv administered 0.125 hr post GF-120918 treatment relative to total clearance; format: ADME, organism-based; design: dose 2 mg/kg, route intravenous; settings: in vivo
Rattus norvegicus [15] = assay: Renal clearance in BCRP-knockout Sprague-Dawley rat at 2 mg/kg, iv relative to total clearance; format: ADME, organism-based, Kidney; design: dose 2 mg/kg, route intravenous; settings: in vivo
[16] = Mean residence time in BCRP-knockout Sprague-Dawley rat at 2 mg/kg, iv; format: ADME, organism-based; design: dose 2 mg/kg, route intravenous; settings: in vivo
[17] = Cmax in wild-type bile duct-cannulated Sprague-Dawley rat at 2 mg/kg, iv; format: ADME, organism-based; design: dose 2 mg/kg, route intravenous; settings: in vivo
Rattus norvegicus [18] = assay: Intestinal clearance in wild-type bile duct-cannulated Sprague-Dawley rat at 2 mg/kg, iv; format: ADME, organism-based; design: dose 2 mg/kg, route intravenous; settings: in vivo
Rattus norvegicus [19] = assay: Metabolism and biliary clearance in wild-type 30 mins activated charcoal pre-treated bile duct-cannulated Sprague-Dawley rat at 2 mg/kg, iv followed by activated charcoal administration 5 to 180 mins post compound dosing; format: ADME, organism-based; design: dose 2 mg/kg, route intravenous; settings: in vivo
[20] = Half life in wild-type 30 mins activated charcoal pre-treated bile duct-cannulated Sprague-Dawley rat at 2 mg/kg, iv followed by activated charcoal administration 5 to 180 mins post compound dosing; format: ADME, organism-based; design: dose 2 mg/kg, route intravenous; settings: in vivo
Rattus norvegicus [21] = assay: Intestinal clearance in wild-type 30 mins activated charcoal pre-treated bile duct-cannulated Sprague-Dawley rat at 2 mg/kg, iv followed by activated charcoal administration 5 to 180 mins post compound dosing relative to total clearance; format: ADME, organism-based; design: dose 2 mg/kg, route intravenous; settings: in vivo
[22] = Drug recovery in urine of Sprague-Dawley rat at 30 mg/kg, po measured up to 168 hrs; format: ADME, organism-based; design: dose 30 mg/kg, route oral; settings: read-out: Drug recovery
[23] = Drug recovery in bile of bile duct-cannulated BCRP-knockout Sprague-Dawley rat at 2 mg/kg, iv measured up to 24 hrs; format: ADME, organism-based; design: dose 2 mg/kg, route intravenous; settings: read-out: Drug recovery
[24] = Drug recovery in feces of Sprague-Dawley rat at 30 mg/kg, po measured up to 168 hrs; format: ADME, organism-based; design: dose 30 mg/kg, route oral; settings: read-out: Drug recovery
[25] = Cmax in bile duct-cannulated beagle dog at 1 mg/kg, iv administered as 5 mins infusion followed by activated charcoal administration 10 to 420 mins post compound dosing; format: ADME, organism-based, Canis lupus familiaris; design: dose 1 mg/kg, route intravenous; settings: in vivo
[26] = Cmax in wild-type bile duct-cannulated Sprague-Dawley rat at 2 mg/kg, iv administered 0.125 hr post GF-120918 treatment; format: ADME, organism-based; design: dose 2 mg/kg, route intravenous; settings: in vivo, with GF-120918
Rattus norvegicus [27] = assay: Renal clearance in wild-type bile duct-cannulated Sprague-Dawley rat at 2 mg/kg, iv administered 0.125 hr post GF-120918 treatment relative to total clearance; format: ADME, organism-based, Kidney; design: dose 2 mg/kg, route intravenous; settings: in vivo
[28] = Drug recovery in feces of bile duct-cannulated beagle dog at 1 mg/kg, iv administered as 5 mins infusion measured up to 72 hrs; format: ADME, organism-based, Canis lupus familiaris; design: dose 1 mg/kg, route intravenous; settings: read-out: Drug recovery
[29] = Half life in P-gp-knockout Sprague-Dawley rat at 2 mg/kg, iv; format: ADME, organism-based; design: dose 2 mg/kg, route intravenous; settings: in vivo
[30] = Half life in BCRP-knockout Sprague-Dawley rat at 2 mg/kg, iv; format: ADME, organism-based; design: dose 2 mg/kg, route intravenous; settings: in vivo
[31] = Volume of distribution at steady state in bile duct-cannulated beagle dog at 1 mg/kg, iv administered as 5 mins infusion; format: ADME, organism-based, Canis lupus familiaris; design: dose 1 mg/kg, route intravenous; settings: in vivo, read-out: Vdss
[32] = Volume of distribution at steady state in wild-type bile duct-cannulated Sprague-Dawley rat at 2 mg/kg, iv administered 0.125 hr post GF-120918 treatment; format: ADME, organism-based; design: dose 2 mg/kg, route intravenous; settings: in vivo, with GF-120918, read-out: Vdss
[33] = Drug recovery in feces of bile duct-cannulated Sprague-Dawley rat at 30 mg/kg, po measured up to 48 hrs; format: ADME, organism-based; design: dose 30 mg/kg, route oral; settings: read-out: Drug recovery
Canis familiaris [34] = assay: Metabolism and biliary clearance in bile duct-cannulated beagle dog at 1 mg/kg, iv administered as 5 mins infusion; format: ADME, organism-based, Canis lupus familiaris; design: dose 1 mg/kg, route intravenous; settings: in vivo
[35] = Drug recovery in feces of bile duct-cannulated beagle dog at 1 mg/kg, iv administered as 5 mins infusion followed by activated charcoal administration 10 to 420 mins post compound measured up to 72 hrs; format: ADME, organism-based, Canis lupus familiaris; design: dose 1 mg/kg, route intravenous; settings: in vivo
Canis familiaris [36] = assay: AUC (0 to infinity) in bile duct-cannulated beagle dog at 1 mg/kg, iv administered as 5 mins infusion; format: ADME, organism-based, Canis lupus familiaris; design: time infinity, dose 1 mg/kg, route intravenous; settings: in vivo
[37] = Volume of distribution at steady state in wild-type 30 mins activated charcoal pre-treated bile duct-cannulated Sprague-Dawley rat at 2 mg/kg, iv followed by activated charcoal administration 5 to 180 mins post compound dosing; format: ADME, organism-based; design: dose 2 mg/kg, route intravenous; settings: in vivo, read-out: Vdss
Rattus norvegicus [38] = assay: Renal clearance in wild-type bile duct-cannulated Sprague-Dawley rat at 2 mg/kg, iv relative to total clearance; format: ADME, organism-based, Kidney; design: dose 2 mg/kg, route intravenous; settings: in vivo
[39] = Mean residence time in bile duct-cannulated beagle dog at 1 mg/kg, iv administered as 5 mins infusion; format: ADME, organism-based, Canis lupus familiaris; design: dose 1 mg/kg, route intravenous; settings: in vivo
[40] = Drug recovery in feces of bile duct-cannulated BCRP-knockout Sprague-Dawley rat at 2 mg/kg, iv measured up to 24 hrs; format: ADME, organism-based; design: dose 2 mg/kg, route intravenous; settings: read-out: Drug recovery
Rattus norvegicus [41] = assay: Intestinal clearance in wild-type bile duct-cannulated Sprague-Dawley rat at 2 mg/kg, iv administered 0.125 hr post GF-120918 treatment; format: ADME, organism-based; design: dose 2 mg/kg, route intravenous; settings: in vivo
[42] = Clearance in wild-type bile duct-cannulated Sprague-Dawley rat at 2 mg/kg, iv administered 0.125 hr post GF-120918 treatment; format: ADME, organism-based; design: dose 2 mg/kg, route intravenous; settings: in vivo, with GF-120918
[43] = Clearance in P-gp-knockout Sprague-Dawley rat at 2 mg/kg, iv; format: ADME, organism-based; design: dose 2 mg/kg, route intravenous; settings: in vivo

## COc1ccc(-n2nc(C(N)=O)c3c2[14C](=O)N(c2ccc(N4CCCCC4=O)cc2)CC3)cc1
Rattus norvegicus [1]
  CL: 33%
[2]
  CL renal at 5 min: 0.0907 mL/min/kg
[3]
  CL renal: 11.8 mL/min/kg
Rattus norvegicus [4]
  CL: 14%
Rattus norvegicus [5]
  CL: 6.5 mL/min/kg
Canis familiaris [6]
  CL: 62%
[7]
  Cmax: 2160 ng/mL
Canis familiaris [8]
  CL: 43%
Canis familiaris [9]
  CL: 0.833 mL/min/kg
[10]
  MRT: 0.6 h
[11]
  MRT: 1.9 h
[12]
  CL renal: 13 mL/min/kg
[13]
  AUC(0-inf): 1020 ng·h/mL
Rattus norvegicus [14]
  CL: 36%
Rattus norvegicus [15]
  CL: 33%
[16]
  MRT: 1.4 h
[17]
  Cmax: 2260 ng/mL
Rattus norvegicus [18]
  CL: 5 mL/min/kg
Rattus norvegicus [19]
  CL: 11.2 mL/min/kg
[20]
  half-life: 0.8 h
Rattus norvegicus [21]
  CL: 28%
[22]
  dose excreted at 168 h: 13.4%
[23]
  dose excreted at 24 h: 12.7%
[24]
  dose excreted at 168 h: 74%
[25]
  Cmax: 4330 ng/mL
[26]
  Cmax: 1970 ng/mL
Rattus norvegicus [27]
  CL: 50%
[28]
  dose excreted: 42.7%
[29]
  half-life: 1.1 h
[30]
  half-life: 2.1 h
[31]
  Vd: 0.2 L/kg
[32]
  Vd: 1.6 L/kg
[33]
  dose excreted at 48 h: 69.8%
Canis familiaris [34]
  CL: 0.288 mL/min/kg
[35]
  Drug recovery: 62.7%
Canis familiaris [36]
  AUC: 9300 ng·h/mL
[37]
  Vd: 1.2 L/kg
Rattus norvegicus [38]
  CL: 51%
[39]
  MRT: 2.6 h
[40]
  dose excreted at 24 h: 34.1%
Rattus norvegicus [41]
  CL: 1.7 mL/min/kg
[42]
  clearance: 11.7 mL/min/kg
[43]
  clearance: 13.3 mL/min/kg
